Results reported in ChEMBL document CHEMBL5365531, “Structure-Activity Relationship Studies of SARS-CoV-2 Main Protease Inhibitors Containing 4-Fluorobenzothiazole-2-carbonyl Moieties” (J Med Chem, 2023).

Tests used:
[1] = Mutagenicity in Salmonella typhimurium TA1535 assessed as fold increase in number of revertants at 0.152 to 333 ug incubated in absence of S9 fraction by micro-Ames test relative to control; assay type: toxicity, Salmonella enterica subsp. enterica serovar Typhimurium; conditions: in vivo; dose 0.152-333 µg
SARS-CoV-2 [2] = assay: Antiviral activity against SARS-CoV-2 infected in Vero E6 cells preincubated with cells for 1 day in presence of HCl treated compound followed by viral infection and measured after 3 days by qRT-PCR analysis; assay type: functional, organism-based; conditions: Severe acute respiratory syndrome coronavirus 2, Vero C1008
[3] = Mutagenicity in Escherichia coli WP2uvrA assessed as fold increase in number of revertants at 0.152 to 333 ug incubated in presence of S9 fraction by micro-Ames test relative to control; assay type: toxicity, subcellular; conditions: dose 0.152-333 µg
[4] = Mutagenicity in Escherichia coli WP2uvrA assessed as inhibition of bacterial growth at 0.152 to 333 ug incubated in presence of S9 fraction by micro-Ames test; assay type: toxicity, subcellular; conditions: dose 0.152-333 µg
[5] = Cytotoxicity against human HepG2 cells; assay type: toxicity, cell-based
SARS-CoV-2 [6] = assay: Antiviral activity against SARS-CoV-2 assessed as fold change relative to YH-53; assay type: functional, Severe acute respiratory syndrome coronavirus 2
[7] = Cytotoxicity against African green monkey Vero E6 cells in presence of P-glycoprotein inhibitor, CP100356; assay type: toxicity, cell-based, Vero C1008; conditions: chlorocebus sabaeus, with CP100356 (P-glycoprotein inhibitor)
[8] = Mutagenicity in Salmonella typhimurium TA1535 assessed as inhibition of bacterial growth at 0.152 to 333 ug incubated in absence of S9 fraction by micro-Ames test; assay type: toxicity, Salmonella enterica subsp. enterica serovar Typhimurium; conditions: in vivo; dose 0.152-333 µg
[9] = Mutagenicity in Salmonella typhimurium TA100 assessed as inhibition of bacterial growth at 0.152 to 333 ug incubated in presence of S9 fraction by micro-Ames test; assay type: toxicity, subcellular, Salmonella enterica subsp. enterica serovar Typhimurium; conditions: dose 0.152-333 µg
[10] = Oral bioavailability in PXB mouse at 10 mg/kg measured for 24 hrs; assay type: ADME, organism-based; conditions: in vivo
[11] = Mutagenicity in Escherichia coli WP2uvrA assessed as fold increase in number of revertants at 0.152 to 333 ug incubated in absence of S9 fraction by micro-Ames test relative to control; assay type: toxicity; conditions: in vivo; dose 0.152-333 µg
SARS-CoV-2 [12] = assay: Antiviral activity against SARS-CoV-2 JPN/TY/WK-521 infected in Vero E6 cells assessed as fold change preincubated with cells for 1 day followed by viral infection and measured after 3 days by qRT-PCR analysis relative to 7-fluoro-N-((S)-1-(((S)-1-(4-fluorobenzo[d]thiazol-2-yl)-1-oxo-3-((S)-2-oxopyrrolidin-3-yl)propan-2-yl)amino)-3,3-dimethyl-1-oxobutan-2-yl)-4-methoxy-1H-indole-2-carboxamide; assay type: functional, Severe acute respiratory syndrome coronavirus 2; conditions: time 4 day
[13] = Mutagenicity in Salmonella typhimurium TA1535 assessed as fold increase in number of revertants at 0.152 to 333 ug incubated in presence of S9 fraction by micro-Ames test relative to control; assay type: toxicity, subcellular, Salmonella enterica subsp. enterica serovar Typhimurium; conditions: dose 0.152-333 µg
[14] = Mutagenicity in Salmonella typhimurium TA98 assessed as inhibition of bacterial growth at 0.152 to 333 ug incubated in absence of S9 fraction by micro-Ames test; assay type: toxicity, Salmonella enterica subsp. enterica serovar Typhimurium; conditions: in vivo; dose 0.152-333 µg
SARS-CoV-2 [15] = assay: Antiviral activity against SARS-CoV-2 infected in Vero E6 cells preincubated with cells for 1 day in absence of HCl followed by viral infection and measured after 3 days by qRT-PCR analysis; assay type: functional, organism-based; conditions: Severe acute respiratory syndrome coronavirus 2, Vero C1008
[16] = Mutagenicity in Escherichia coli WP2uvrA assessed as inhibition of bacterial growth at 0.152 to 333 ug incubated in absence of S9 fraction by micro-Ames test; assay type: toxicity; conditions: in vivo; dose 0.152-333 µg
[17] = Mutagenicity in Salmonella typhimurium TA98 assessed as fold increase in number of revertants at 0.152 to 333 ug incubated in presence of S9 fraction by micro-Ames test relative to control; assay type: toxicity, subcellular, Salmonella enterica subsp. enterica serovar Typhimurium; conditions: dose 0.152-333 µg
MOLT-4 = assay: Cytotoxicity against human MOLT-4 cells assessed as reduction in cell viability at 0.4 uM incubated for 12 days by CCK-8 assay; assay type: toxicity, cell-based; conditions: molt-4, 288 h, time 12 day
[18] = Cytotoxicity against human HeLa cells expressing ACE2 and TMPRSS2; assay type: toxicity, cell-based
[19] = Cytotoxicity against human A549-hACE2-TMPRSS2 cells; assay type: toxicity, cell-based
PBMC = assay: Cytotoxicity against human PBMC cells assessed as reduction in cell viability at 0.4 uM incubated for 12 days by CCK-8 assay; assay type: toxicity, cell-based; conditions: 288 h, time 12 day
[20] = Mutagenicity in Salmonella typhimurium TA100 assessed as fold increase in number of revertants at 0.152 to 333 ug incubated in absence of S9 fraction by micro-Ames test relative to control; assay type: toxicity, Salmonella enterica subsp. enterica serovar Typhimurium; conditions: in vivo; dose 0.152-333 µg
MT2 = assay: Cytotoxicity against human MT2 cells assessed as reduction in cell viability at 0.4 uM incubated for 12 days by CCK-8 assay; assay type: toxicity, cell-based; conditions: mt2, 288 h, time 12 day
SARS-CoV-2 [21] = assay: Antiviral activity against SARS-CoV-2 hCoV-19/Japan/TKYS02037/2022 (omicron BA.2) infected in Vero E6 cells preincubated with cells for 1 day followed by viral infection and measured after 3 days by qRT-PCR analysis; assay type: functional, organism-based; conditions: Severe acute respiratory syndrome coronavirus 2, hCoV-19/Japan/TKYS02037/2022 (omicron BA.2), Vero C1008
[22] = Cytotoxicity against African green monkey Vero E6 cells incubated for 3 days by WST-8 assay; assay type: toxicity, cell-based, Vero C1008; conditions: chlorocebus sabaeus, time 3 day
SARS-CoV-2 [23] = assay: Antiviral activity against SARS-CoV-2 JPN/TY/WK-521 infected in Vero E6 cells preincubated with cells for 1 day followed by viral infection and measured after 3 days by qRT-PCR analysis; assay type: functional, organism-based; conditions: Severe acute respiratory syndrome coronavirus 2, JPN/TY/WK-521, Vero C1008
[24] = Mutagenicity in Salmonella typhimurium TA1537 assessed as inhibition of bacterial growth at 0.152 to 333 ug incubated in absence of S9 fraction by micro-Ames test; assay type: toxicity, Salmonella enterica subsp. enterica serovar Typhimurium; conditions: in vivo; dose 0.152-333 µg
[25] = Mutagenicity in Salmonella typhimurium TA1535 assessed as inhibition of bacterial growth at 0.152 to 333 ug incubated in presence of S9 fraction by micro-Ames test; assay type: toxicity, subcellular, Salmonella enterica subsp. enterica serovar Typhimurium; conditions: dose 0.152-333 µg
[26] = Mutagenicity in Salmonella typhimurium TA100 assessed as inhibition of bacterial growth at 0.152 to 333 ug incubated in absence of S9 fraction by micro-Ames test; assay type: toxicity, Salmonella enterica subsp. enterica serovar Typhimurium; conditions: in vivo; dose 0.152-333 µg
[27] = Mutagenicity in Salmonella typhimurium TA1537 assessed as fold increase in number of revertants at 0.152 to 333 ug incubated in presence of S9 fraction by micro-Ames test relative to control; assay type: toxicity, subcellular, Salmonella enterica subsp. enterica serovar Typhimurium; conditions: dose 0.152-333 µg
[28] = Mutagenicity in Salmonella typhimurium TA1537 assessed as fold increase in number of revertants at 0.152 to 333 ug incubated in absence of S9 fraction by micro-Ames test relative to control; assay type: toxicity, Salmonella enterica subsp. enterica serovar Typhimurium; conditions: in vivo; dose 0.152-333 µg
SARS-CoV-2 [29] = assay: Antiviral activity against SARS-CoV-2 JPN/TY/WK-521 infected in Vero E6 cells assessed as inhibition of viral replication preincubated with cells for 1 day followed by viral infection and measured after 3 to 4 days by qRT-PCR analysis; assay type: functional, organism-based; conditions: Severe acute respiratory syndrome coronavirus 2, JPN/TY/WK-521, Vero C1008
[30] = Mutagenicity in Salmonella typhimurium TA98 assessed as inhibition of bacterial growth at 0.152 to 333 ug incubated in presence of S9 fraction by micro-Ames test; assay type: toxicity, subcellular, Salmonella enterica subsp. enterica serovar Typhimurium; conditions: dose 0.152-333 µg
[31] = Mutagenicity in Salmonella typhimurium TA1537 assessed as inhibition of bacterial growth at 0.152 to 333 ug incubated in presence of S9 fraction by micro-Ames test; assay type: toxicity, subcellular, Salmonella enterica subsp. enterica serovar Typhimurium; conditions: dose 0.152-333 µg
[32] = Half life in PXB mouse at 10 mg/kg, po measured for 24 hrs; assay type: ADME, organism-based; conditions: in vivo
[33] = Mutagenicity in Salmonella typhimurium TA98 assessed as fold increase in number of revertants at 0.152 to 333 ug incubated in absence of S9 fraction by micro-Ames test relative to control; assay type: toxicity, Salmonella enterica subsp. enterica serovar Typhimurium; conditions: in vivo; dose 0.152-333 µg
[34] = Mutagenicity in Salmonella typhimurium TA100 assessed as fold increase in number of revertants at 0.152 to 333 ug incubated in presence of S9 fraction by micro-Ames test relative to control; assay type: toxicity, subcellular, Salmonella enterica subsp. enterica serovar Typhimurium; conditions: dose 0.152-333 µg
Vero C1008 = assay: Cytotoxicity against African green monkey Vero E6 cells infected with SARS-CoV-2 WK-521 upto 100 uM incubated for 3 days by immunostaining analysis; assay type: toxicity, cell-based; conditions: chlorocebus sabaeus, vero c1008, 72 h, time 3 day
[35] = Half life in PXB mouse at 10 mg/kg, iv measured for 24 hrs; assay type: ADME, organism-based; conditions: in vivo

Structure (SMILES): CC(C)(C)[C@H](NC(=O)C(F)(F)F)C(=O)N1C[C@H]2[C@@H]([C@H]1C(=O)N[C@@H](C[C@@H]1CCNC1=O)C(=O)c1nc3c(F)cccc3s1)C2(C)C
- fold change (FC) [1]: > 2
- EC50 (SARS-CoV-2 [2]): 87 nM
- fold change (FC) [3]: > 2
- Activity [4]: Non-Toxic
- CC50 [5]: > 200000 nM
- fold change (FC) (SARS-CoV-2 [6]): 0.012
- CC50 [7]: > 100000 nM
- Activity [8]: Non-Toxic
- Activity [9]: Non-Toxic
- bioavailability [10]: 48%
- fold change (FC) [11]: > 2
- fold change (FC) (SARS-CoV-2 [12]): 0.057
- fold change (FC) [13]: > 2
- Activity [14]: Non-Toxic
- EC50 (SARS-CoV-2 [15]): 74 nM
- Activity [16]: Non-Toxic
- fold change (FC) [17]: > 2
- Activity (MOLT-4): Non-Toxic
- CC50 [18]: > 100000 nM
- CC50 [19]: > 100000 nM
- Activity (PBMC): Non-Toxic
- fold change (FC) [20]: > 2
- Activity (MT2): Non-Toxic
- EC50 (SARS-CoV-2 [21]): 48 nM
- CC50 at 72 h [22]: > 100000 nM
- EC50 (SARS-CoV-2 [23]): 12 nM
- Activity [24]: Non-Toxic
- Activity [25]: Non-Toxic
- Activity [26]: Non-Toxic
- fold change (FC) [27]: > 2
- fold change (FC) [28]: > 2
- EC50 (SARS-CoV-2 [29]): 30 nM
- Activity [30]: Non-Toxic
- Activity [31]: Non-Toxic
- half-life [32]: 3.82 h
- fold change (FC) [33]: > 2
- fold change (FC) [34]: > 2
- Activity (Vero C1008): Non-Toxic
- half-life [35]: 1.25 h
